The source of these data is patent US11708360B2, “N-substituted-dioxocyclobutenylamino-3-hydroxy-picolinamides useful as CCR6 inhibitors” (Pfizer Inc., priority 2018, dated 2023).

The IC50 is the concentration at which inhibition is half-maximal.

Read-outs that look alike come from different tables or passages of the source.

Assay [1] concerns the target T1, CXCR2 (Homo sapiens, UniProt P25025).
T1 sequence (P25025 1-360): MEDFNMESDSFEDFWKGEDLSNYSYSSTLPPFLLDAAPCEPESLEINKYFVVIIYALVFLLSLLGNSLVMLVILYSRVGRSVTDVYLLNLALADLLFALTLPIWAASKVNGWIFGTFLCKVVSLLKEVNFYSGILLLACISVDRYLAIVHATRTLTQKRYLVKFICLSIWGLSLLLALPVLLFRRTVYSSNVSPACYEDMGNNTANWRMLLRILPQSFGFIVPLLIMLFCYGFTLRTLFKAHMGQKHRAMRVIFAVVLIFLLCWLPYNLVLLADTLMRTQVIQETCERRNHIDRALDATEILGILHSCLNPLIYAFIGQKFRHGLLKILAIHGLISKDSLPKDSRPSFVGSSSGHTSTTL
On the set-up: host or cells: Path-Hunter HEK293 cells. To be noted: Table 16; data disclosed in WO 2013/061005; β-arrestin recruitment, CXCL8, Path-Hunter HEK293 cells; cited from earlier work. Background: Recruitment of arrestin is a read-out of receptor activation apart from second messengers.

Assay [2] has as its target T1, CXCR2. Put plainly: Human Neutrophil Chemotaxis Assay. Format: cell-based. The arrangement: Human neutrophils were purified from freshly drawn human whole blood; endogenous in cells; host or cells: primary human neutrophils from fresh whole blood. How it is done: After 30 min, the labeled neutrophils were washed twice in chemotaxis buffer, resuspended as before and used immediately. For the assay, test compounds were tested in a dose-response format to determine IC50. Labeled neutrophils (50 μL) were pre-incubated with diluted test compound (50 μL) for 30 min in a 96-well plate (Greiner). Next, 100 μL of diluted compound was mixed with 100 μL of GROα (Peprotech #300-11, 2 nM) in the bottom portion of the chemotaxis chamber. The top portion (insert) of the chemotaxis system containing the FluoroBlok porous membrane was then assembled together. 50 μL of the pre-incubated neutrophils were added to the FluoroBlok insert (top portion) and chemotaxis measured by the neutrophils ability to migrate through the membrane towards the specific CXCR2 ligand, GROα.
IC50 values for compounds of the present invention (Table 12) were determined by the non-linear regression analysis of dose response curves.

Assay [3] has as its target T2, CCR6 (Homo sapiens, UniProt P51684).
T2 construct: Human CD4+CCR6+CXCR3-T cells were isolated from leukopak from healthy donors; endogenous in cells
T2 sequence (P51684 1-374): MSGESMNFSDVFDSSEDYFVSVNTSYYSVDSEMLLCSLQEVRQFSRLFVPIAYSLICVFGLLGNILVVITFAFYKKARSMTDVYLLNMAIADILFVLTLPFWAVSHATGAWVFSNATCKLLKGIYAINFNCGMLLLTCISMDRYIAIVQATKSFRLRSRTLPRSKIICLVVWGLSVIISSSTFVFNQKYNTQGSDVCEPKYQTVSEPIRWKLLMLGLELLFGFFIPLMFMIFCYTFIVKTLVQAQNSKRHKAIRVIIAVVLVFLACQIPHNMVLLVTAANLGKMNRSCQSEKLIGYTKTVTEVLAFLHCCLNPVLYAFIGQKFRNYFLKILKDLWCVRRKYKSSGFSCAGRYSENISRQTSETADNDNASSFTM
Put plainly: CCR6+ T Cell Chemotaxis Assay. The settings on record: for T Cell Chemotaxis Selectivity: Table 13, T cell chemotaxis compared to neutrophil chemotaxis; for T Cell Chemotaxis Selectivity / R = H, T Cell Chemotaxis Selectivity: NS = not selective for T cell chemotaxis compared to neutrophil chemotaxis. The format is cell-based. The source says: Human CD4+CCR6+CXCR3-T cells were isolated from leukopak from healthy donors using EasySep™ Human Th17 Cell Enrichment Kit. […] Day 4 post activation, Dynabeads were removed from the culture. The activated T cells were maintained at 1-2×10^6 cells/mL for 15 days by feeding fresh growth media when needed.
For IC50 determination, the top and bottom of the chemotaxis chamber contained the same concentration of compound. DMSO was kept constant at 0.1% (v/v) in all wells. The final concentration of CCL20 (Peprotech 300-29A) in the bottom chamber is 0.5 nM. The fully assembled chemotaxis plate was placed in a cell culture incubator at 37° C., 5% CO2 for 1 h. After incubation, the top filter was removed, followed by a quick freeze of the bottom chamber at −80° C. for 1 h. The migrated cells in the bottom chamber were stained with CyQUANT dye (Life Technologies, C7026) for cell number determination.
IC50 values for compounds of the present invention (Table 11) were determined by the non-linear regression analysis of dose response curves.

The mark [4] stands for this setting: Table 17, WO 2013/061005 comparator compounds, read-out: IC50 (nM) CXCR2 Neutrophil, GROα Chemotaxis.
The mark [5] stands for this setting: Table 11, human CD4+CCR6+CXCR3- T cells, CCL20 0.5 nM in bottom chamber, 1 h at 37° C., read-out: IC50.
[6] abbreviates: Table 12, human neutrophils migrating towards the CXCR2 ligand GROα, read-out: IC50.
Setting [7] is: Table 14, R = H, read-out: R = H, IC50 (nM) CCR6 T cell, CCL20 Chemotaxis.
Setting [8] is: Table 14, R = H, read-out: R = H, IC50 (nM) CXCR2 Neutrophil, GROα Chemotaxis.

As to `Cc1ccc([C@H](Nc2c(Nc3ccc(Cl)c(S(=O)(=O)N(C)C)c3O)c(=O)c2=O)C2(C)COC2)o1` [Example 22 (WO 2013/061005), reference compound], the concentration for half-maximal inhibition (IC50) in assay [1] is 0.031 µM; in assay [2] (setting [4]), 35.2 nM.

Consider `Cc1sc(CO)nc1[C@H](Nc1c(Nc2ccnc(C(=O)N(C)C)c2O)c(=O)c1=O)C1(C)CCCC1` [Example 28, (R)-3-Hydroxy-4-((2-(((2-(hydroxymethyl)-5-methylthiazol-4-yl)(1-methylcyclopentyl)methyl)amino)-3,4-dioxocyclobut-1-en-1-yl)amino)-N,N-dimethylpicolinamide], for which the IC50 amounted to 36.7 nM in assay [3] (setting [5]) and 2190 nM in assay [2] (setting [6]). Further, the “T Cell Chemotaxis Selectivity” value in assay [3] came to 60.

Take `CN(C)C(=O)c1nccc(Nc2c(N[C@@H](c3nn(C)cc3C3CC3)C3(C)CCCC3)c(=O)c2=O)c1O` [Example 29, (R)-4-((2-(((4-Cyclopropyl-1-methyl-1H-pyrazol-3-yl)(1-methylcyclopentyl)methyl)amino)-3,4-dioxocyclobut-1-en-1-yl)amino)-3-hydroxy-N,N-dimethylpicolinamide]: the IC50 was determined as 12 nM in assay [3] (setting [5]) and 4410 nM in assay [2] (setting [6]). Moreover, in assay [3], the “T Cell Chemotaxis Selectivity” value amounted to 367.

For the compound `CCN(C)C(=O)c1nccc(Nc2c(N[C@@H](c3nn(C)cc3C#N)C3(C)CCCC3)c(=O)c2=O)c1O` [Example 30, (R)-4-((2-(((4-Cyano-1-methyl-1H-pyrazol-3-yl)(1-methylcyclopentyl)methyl)amino)-3,4-dioxocyclobut-1-en-1-yl)amino)-N-ethyl-3-hydroxy-N-methylpicolinamide], the figures for the IC50 in assay [3] (setting [5]) and in assay [2] (setting [6]) were 96.1 nM and 4030 nM, respectively. In addition, the “T Cell Chemotaxis Selectivity” value in assay [3] worked out at 42.

Take `CC(C)N(C)C(=O)c1nccc(Nc2c(N[C@@H](c3nn(C)cc3C#N)C3(C)CCCC3)c(=O)c2=O)c1O` [Example 31, (R)-4-((2-(((4-cyano-1-methyl-1H-pyrazol-3-yl)(1-methylcyclopentyl)methyl)amino)-3,4-dioxocyclobut-1-en-1-yl)amino)-3-hydroxy-N-isopropyl-N-methylpicolinamide]: the IC50 in assay [3] (setting [5]) was 45.4 nM; in assay [2] (setting [6]), 2750 nM. Besides, in assay [3], the “T Cell Chemotaxis Selectivity” value is 60.

Regarding `Cc1nc([C@H](Nc2c(Nc3ccnc(C(=O)N(C)C)c3O)c(=O)c2=O)C2(C)CCCC2)c(C)s1` [Example 32, (R)-4-((2-(((2,5-Dimethylthiazol-4-yl)(1-methylcyclopentyl)-methyl)amino)-3,4-dioxocyclobut-1-en-1-yl)amino)-3-hydroxy-N,N-dimethylpicolinamide], the half-inhibitory concentration (IC50) in assay [3] (setting [5]) is 2.7 nM; in assay [3] (Table 14, R = CH3, read-out: R = CH3, IC50 (nM) CCR6 T cell, CCL20 Chemotaxis), 2.7 nM; in assay [2] (setting [6]) it was 332 nM; in assay [2] (Table 14, R = CH3, read-out: R = CH3, IC50 (nM) CXCR2 Neutrophil, GROα Chemotaxis) it was 332 nM. Also, the “T Cell Chemotaxis Selectivity” value in assay [3] is reported as 123. Besides, the “R = CH3, T Cell Chemotaxis Selectivity” value in assay [3] (Table 14, R = CH3) is given as 123.

`COc1sc(C)nc1[C@H](Nc1c(Nc2ccnc(C(=O)N(C)C)c2O)c(=O)c1=O)C1(C)CCCC1` [Example 33, (R)-3-Hydroxy-4-((2-(((5-methoxy-2-methylthiazol-4-yl)(1-methylcyclopentyl)methyl)amino)-3,4-dioxocyclobut-1-en-1-yl)amino)-N,N-dimethylpicolinamide]: the IC50 in assay [3] (setting [5]) is 4.4 nM; in assay [2] (setting [6]), 69.9 nM. In addition, the “T Cell Chemotaxis Selectivity” value in assay [3] turned out to be 16.

As to `CCc1cn(C)nc1[C@H](Nc1c(Nc2ccnc(C(=O)N(C)C)c2O)c(=O)c1=O)[C@]1(C)CC(F)(F)CO1` [Example 37, 4-((2-(((S)-((S)-4,4-Difluoro-2-methyltetrahydrofuran-2-yl) (4-ethyl-1-methyl-1H-pyrazol-3-yl)methyl)amino)-3,4-dioxocyclobut-1-en-1-yl)amino)-3-hydroxy-N,N-dimethylpicolinamide], the IC50 in assay [3] (setting [5]) came out at 5.2 nM; in assay [2] (setting [6]), 3630 nM. Moreover, in assay [3], the “T Cell Chemotaxis Selectivity” value was 698.

`Cc1nc([C@H](Nc2c(Nc3ccnc(C(=O)N(C)C)c3O)c(=O)c2=O)[C@]2(C)CC(F)(F)CO2)c(C)s1` [Example 38, 4-((2-(((S)-((S)-4,4-Difluoro-2-methyltetrahydrofuran-2-yl) (2,5-dimethylthiazol-4-yl)methyl)amino)-3,4-dioxocyclobut-1-en-1-yl)amino)-3-hydroxy-N,N-dimethylpicolinamide]: the IC50 came out at 12.6 nM in assay [3] (setting [5]) and 3460 nM in assay [2] (setting [6]). Also, in assay [3], the “T Cell Chemotaxis Selectivity” value is recorded as 274.

For `Cc1ccc([C@H](Nc2c(Nc3ccc(Cl)c(C(=O)N4CCN(C)CC4)c3O)c(=O)c2=O)C2(C)COC2)o1` [Example 53, reference compound], the results for the IC50 in assay [1] and in assay [2] (setting [4]) were 0.03 µM and 1140 nM, respectively.

For the compound `CC[C@@H](Nc1c(Nc2ccnc(C(=O)N(C)C)c2O)c(=O)c1=O)c1cccc(C2CC2)c1` [Example 120, reference compound], the IC50 amounted to 388 nM in assay [3] (Table 15, WO 2010/131145 comparator compounds, read-out: IC50 (nM) CCR6 T cell, CCL20 Chemotaxis) and 5.7 nM in assay [2] (Table 15, WO 2010/131145 comparator compounds, read-out: IC50 (nM) CXCR2 Neutrophil, GROα Chemotaxis).

Turning to `CN(C)C(=O)c1nccc(Nc2c(NC(c3ccn(C)n3)C3(C)CCCC3)c(=O)c2=O)c1O` (centres unmarked) [drawing 179 (R = H), reference compound], the “R = H, T Cell Chemotaxis Selectivity” value in assay [3] (Table 14, R = H) is given as 2.2. The results for the half-maximal inhibitory concentration (IC50) in assay [3] (setting [7]) and in assay [2] (setting [8]) were 19.2 nM and 42.1 nM, respectively.

`Cc1nc([C@H](Nc2c(Nc3ccnc(C(=O)N(C)C)c3O)c(=O)c2=O)C2(C)CCCC2)cs1` [drawing 180 (R = H), reference compound]: the “R = H, T Cell Chemotaxis Selectivity” value in assay [3] (Table 14, R = H) is reported as 10.8. Also, the concentration for half-maximal inhibition (IC50) in assay [3] (setting [7]) was 32.1 nM; in assay [2] (setting [8]), 346 nM.

Regarding `Cc1nc([C@H](Nc2c(Nc3ccnc(C(=O)N(C)C)c3O)c(=O)c2=O)C2(C)CCCC2)co1` [drawing 181 (R = H), reference compound], the IC50 was 64.5 nM in assay [3] (setting [7]) and 12.2 nM in assay [2] (setting [8]).
